Experiments:
Type in all cases: functional, organism-based
[1] = test system: Pseudomonas aeruginosa; assay: Antibacterial activity against efflux pump lacking/recombinant OM pore producing Pseudomonas aeruginosa assessed as inhibition of bacterial growth
[2] = test system: Pseudomonas aeruginosa; assay: Antibacterial activity against efflux pump lacking Pseudomonas aeruginosa assessed as inhibition of bacterial growth
[3] = test system: Escherichia coli; assay: Antibacterial activity against wild type Escherichia coli assessed as inhibition of bacterial growth
[4] = test system: Escherichia coli; assay: Antibacterial activity against recombinant OM pore producing Escherichia coli assessed as inhibition of bacterial growth
[5] = test system: Acinetobacter baumannii; assay: Antibacterial activity against efflux pump lacking Acinetobacter baumannii assessed as inhibition of bacterial growth
[6] = test system: Escherichia coli; assay: Antibacterial activity against efflux pump lacking Escherichia coli assessed as inhibition of bacterial growth
[7] = test system: Acinetobacter baumannii; assay: Antibacterial activity against wild type Acinetobacter baumannii assessed as inhibition of bacterial growth
[8] = test system: Pseudomonas aeruginosa; assay: Antibacterial activity against recombinant OM pore producing Pseudomonas aeruginosa assessed as inhibition of bacterial growth
[9] = test system: Escherichia coli; assay: Antibacterial activity against efflux pump lacking/recombinant OM pore producing Escherichia coli assessed as inhibition of bacterial growth
[10] = test system: Pseudomonas aeruginosa; assay: Antibacterial activity against wild type Pseudomonas aeruginosa assessed as inhibition of bacterial growth
[11] = test system: Acinetobacter baumannii; assay: Antibacterial activity against efflux pump lacking/recombinant OM pore producing Acinetobacter baumannii assessed as inhibition of bacterial growth
[12] = test system: Acinetobacter baumannii; assay: Antibacterial activity against recombinant OM pore producing Acinetobacter baumannii assessed as inhibition of bacterial growth

SMILES | IC50 [1] [µM] | IC50 [2] [µM] | IC50 [3] [µM] | IC50 [4] [µM] | IC50 [5] [µM] | IC50 [6] [µM] | IC50 [7] [µM] | IC50 [8] [µM] | IC50 [9] [µM] | IC50 [10] [µM] | IC50 [11] [µM] | IC50 [12] [µM]
O=C1O[C@@H](CO)CN1c1ccc(C#CCO)c(F)c1 | > 100 | > 100 | > 100 | > 100 | > 100 | 84 | > 100 | > 100 | 43.6 | > 100 | > 100 | > 100
N/C(=N/O)c1ccc(-c2ccc(N3C[C@H](CO)OC3=O)cc2F)cc1 | 1.8 | 5.1 | 55.9 | 7.5 | 1.2 | 0.6 | 22.1 | 63.6 | 1 | > 100 | 0.9 | 2.8
Cc1nn(C)c(C)c1C#Cc1ccc(N2C[C@H](CO)OC2=O)cc1F | > 100 | > 100 | > 100 | 1.2 | > 100 | 86.3 | > 100 | > 100 | 3.4 | > 100 | > 100 | > 100
CCC[n+]1ccc(-c2ccc(N3C[C@H](CO)OC3=O)cc2F)cc1 | > 100 | > 100 | 43.9 | 28.3 | 89.7 | 12.7 | > 100 | > 100 | 16.6 | > 100 | 19.8 | 19.8
CC(=O)OCC#Cc1ccc(N2C[C@H](CO)OC2=O)cc1F | > 100 | > 100 | > 100 | 44.4 | > 100 | 72.4 | > 100 | > 100 | 39.7 | > 100 | > 100 | > 100
COC(=O)c1ccccc1-c1ccc(N2C[C@H](CO)OC2=O)cc1F | > 100 | > 100 | 96 | 61.5 | > 100 | 64.6 | > 100 | > 100 | 39.7 | > 100 | > 100 | > 100
CCOC(=O)C(C)(C)CC#Cc1ccc(N2C[C@H](CO)OC2=O)cc1F | 30.1 | > 100 | > 100 | 65.3 | 44 | 17.8 | > 100 | > 100 | 21.9 | > 100 | 30.3 | 60.3
CC(C(=O)NCC#Cc1ccc(N2C[C@H](CO)OC2=O)cc1F)N1CCN(C(=O)OC(C)(C)C)CC1 (some centres not stated) | > 100 | > 100 | > 100 | > 100 | > 100 | 50.9 | > 100 | > 100 | 62.6 | > 100 | > 100 | > 100
C[n+]1ccc2cc(-c3ccc(N4C[C@H](CO)OC4=O)cc3F)ccc2c1 | > 100 | > 100 | 63.6 | 30 | 29.7 | 4 | > 100 | > 100 | 11.4 | > 100 | 27.9 | 20.1
COC(=O)c1cncc(-c2ccc(N3C[C@H](CO)OC3=O)cc2F)c1 | 38.7 | 32.9 | > 100 | 4.7 | 12.1 | 2.7 | 83.2 | > 100 | 2.2 | > 100 | 12.1 | 83.2
NC(=S)Nc1cccc(C#Cc2ccc(N3C[C@H](CO)OC3=O)cc2F)c1 | > 100 | > 100 | > 100 | > 100 | > 100 | 85 | > 100 | > 100 | 64.5 | > 100 | > 100 | > 100
N=C(N)NCc1ccc(-c2ccc(N3C[C@H](CO)OC3=O)cc2F)cc1 | 25.7 | 12 | > 100 | 56.1 | 67.8 | 63.8 | > 100 | > 100 | 55.7 | > 100 | 32.5 | 65.9
CC(=O)N1CCN(CC#Cc2ccc(N3C[C@H](CO)OC3=O)cc2F)CC1 | > 100 | > 100 | > 100 | > 100 | > 100 | > 100 | > 100 | > 100 | > 100 | > 100 | > 100 | > 100
O=C(O)CCCC#Cc1ccc(N2C[C@H](CO)OC2=O)cc1F | > 100 | > 100 | > 100 | > 100 | > 100 | > 100 | > 100 | > 100 | > 100 | > 100 | > 100 | > 100
CC(C)(C)OC(=O)NCC#Cc1ccc(N2C[C@H](CO)OC2=O)cc1F | > 100 | > 100 | > 100 | 74.3 | > 100 | 83.4 | > 100 | > 100 | 64.7 | > 100 | > 100 | > 100
O=C1O[C@@H](CO)CN1c1ccc(-c2ccc3c(c2)OCO3)c(F)c1 | 0.3 | 2.4 | 23 | 2.4 | 2.4 | 0.3 | > 100 | > 100 | 0.3 | > 100 | 1.5 | > 100
CC(C)(C)Oc1cc(-c2ccc(N3C[C@H](CO)OC3=O)cc2F)cnc1C#N | > 100 | > 100 | > 100 | > 100 | > 100 | > 100 | > 100 | > 100 | > 100 | > 100 | > 100 | > 100
O=C1O[C@@H](CO)CN1c1ccc(-c2cnoc2)c(F)c1 | 32.9 | 22.7 | > 100 | 56.1 | 83.4 | 23.6 | > 100 | > 100 | 30.6 | > 100 | 83.4 | > 100
O=C(O)CNCC#Cc1ccc(N2C[C@H](CO)OC2=O)cc1F | > 100 | > 100 | > 100 | > 100 | > 100 | > 100 | > 100 | > 100 | > 100 | > 100 | > 100 | > 100
C[n+]1ccc2ccc(-c3ccc(N4C[C@H](CO)OC4=O)cc3F)cc2c1 | > 100 | > 100 | > 100 | 21 | 48.6 | 5.6 | > 100 | > 100 | 9.6 | > 100 | 9.4 | 27.4
CC(O)c1ccc(OCC#Cc2ccc(N3C[C@H](CO)OC3=O)cc2F)cc1 (some centres not stated) | 91.3 | > 100 | 62.4 | 24.7 | 61.9 | 30.2 | > 100 | > 100 | 13.5 | > 100 | 34.7 | > 100
O=C1O[C@@H](CO)CN1c1ccc(-c2cccc(S(=O)(=O)C(F)(F)F)c2)c(F)c1 | > 100 | > 100 | > 100 | 21.2 | 48.8 | 19.3 | > 100 | > 100 | 12.5 | > 100 | 38.5 | > 100
CNC(=O)NCC#Cc1ccc(N2C[C@H](CO)OC2=O)cc1F | > 100 | > 100 | > 100 | > 100 | > 100 | > 100 | > 100 | > 100 | 11.2 | > 100 | > 100 | > 100
O=C1O[C@@H](CO)CN1c1ccc(-c2ccc(-c3ccncc3)cc2)c(F)c1 | 1 | 92.1 | > 100 | > 100 | > 100 | > 100 | > 100 | > 100 | 75.2 | > 100 | > 100 | > 100
O=C1O[C@@H](CO)CN1c1ccc(-c2ccc(F)cc2)c(F)c1 | 2.2 | 8.8 | 89.1 | 22.8 | 8.8 | 4.3 | > 100 | 89.8 | 2.3 | > 100 | 9.7 | 89.8
O=C1O[C@@H](CO)CN1c1ccc(-c2ccc3ccncc3c2)c(F)c1 | 0.1 | > 100 | > 100 | > 100 | > 100 | > 100 | > 100 | > 100 | > 100 | > 100 | > 100 | > 100
